The target of the test is T1, Tyrosine-protein phosphatase non-receptor type 1 [1-298] (Homo sapiens, UniProt P18031).
T1 construct: 1-298
T1 sequence (P18031 whole entry): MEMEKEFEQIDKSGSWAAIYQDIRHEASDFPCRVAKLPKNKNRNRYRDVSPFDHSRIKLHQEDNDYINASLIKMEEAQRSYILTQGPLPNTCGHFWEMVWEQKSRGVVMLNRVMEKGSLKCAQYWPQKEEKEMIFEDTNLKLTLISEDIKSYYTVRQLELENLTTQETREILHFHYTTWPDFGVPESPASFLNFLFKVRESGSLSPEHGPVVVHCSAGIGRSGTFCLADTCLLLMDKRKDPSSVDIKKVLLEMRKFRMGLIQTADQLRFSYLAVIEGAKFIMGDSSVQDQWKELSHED
The experiment in a line: Phosphatase Inhibition Assay. The settings on record: pH 7; 22 °C.

A word on the IC50: it is the concentration that inhibits the measured activity by half. Low readings indicate inhibition by little substance, high ones a need for much substance. On to `CC(=O)N[C@@H](Cc1ccccc1)C(=O)N[C@@H](Cc1ccc(C2=CC(=O)NS2(=O)=O)cc1)C(N)=O` [(2S)-N-[(1S)-1-carbamoyl-2-[4-(1,1,3-trioxo-2,3-dihydro-1,2-thiazol-5-yl)phenyl]ethyl]-2-acetamido-3-phenylpropanamide], for which half-maximal inhibition (IC50) was put at 3 µM. The value for `CC(=O)N[C@@H](Cc1ccccc1)C(=O)N[C@@H](Cc1ccc([C@H]2CC(=O)NS2(=O)=O)cc1)C(N)=O` [(2S)-N-[(1S)-1-carbamoyl-2-{4-[(5R)-1,1,3-trioxo-1,2-thiazolidin-5-yl]phenyl}ethyl]-2-acetamido-3-phenylpropanamide] was 16 µM.

The values are drawn from BindingDB's records for doi:10.1074/jbc.M606873200 (Incyte, 2006).
